IC50 and Ki data for eleven molecules are collected here from ChEMBL document CHEMBL1152139, “Pterocarpans and flavanones from Sophora flavescens displaying potent neuraminidase inhibition” (Bioorg Med Chem Lett, 2008).

What is called IC50 is the concentration at which inhibition is half-maximal. For orientation: Ki means a dissociation constant, usually derived from enzyme kinetics or from competition with a known ligand. The low end stands for higher affinity, the high end for lower affinity.

A short description of experiment [1]: Inhibition of mouse liver sialidase.
Experiment [2] in a line: Inhibition of Clostridium perfringens neuraminidase.
The nature of experiment [3]: Inhibition of Clostridium perfringens neuraminidase by Lineweaver-Burke plot.

Molecule `O=C(O)[C@H]1O[C@@H](Oc2c(O)c(O[C@@H]3O[C@H](C(=O)O)[C@@H](O)[C@H](O)[C@H]3O)c3oc(-c4ccc(O)cc4)cc(=O)c3c2O)[C@H](O)[C@@H](O)[C@@H]1O` returned an IC50 in experiment [1] of 40 µM.

Take `C=C(C)[C@H](CCC(C)(C)O)Cc1c(O)cc(OC)c2c1O[C@H](c1ccc(O)cc1O)CC2=O` [KURARINOL]: the IC50 in experiment [2] was determined as 17 µM. In addition, the Ki in experiment [3] was 19.7 µM.

Consider `C=C(C)C(CC=C(C)C)Cc1c(O)cc(OC)c2c1O[C@H](c1ccc(O)cc1O)CC2=O` (stereo not given in full) [KURARINONE], for which the IC50 in experiment [2] was found to be 15.1 µM. The molecule also displayed a Ki in experiment [3] of 18.8 µM.

As to `C=C(C)[C@H](CC=C(C)C)Cc1c(O)cc(O)c2c1O[C@H](c1ccccc1O)CC2=O` [KUSHENOL A], the concentration for half-maximal inhibition (IC50) in experiment [2] amounted to 14.8 µM. In experiment [3], this molecule registered a Ki of 17.1 µM.

`C=C(C)[C@H](CCC(C)(C)O)Cc1c(O)cc(O)c2c1O[C@H](c1ccccc1O)CC2=O` [KUSHENOL T]: in experiment [2], the IC50 is 12.1 µM. Moreover, in experiment [3], the affinity corresponds to a Ki of 10.8 µM.

Molecule `Oc1ccc2c(c1)OC[C@H]1c3cc4c(cc3O[C@@H]21)OCO4` [MAACKIAIN] returned a 50% inhibitory concentration (IC50) in experiment [2] of 3.2 µM. This molecule also registered a Ki in experiment [3] of 2.1 µM.

For `O=c1c2cc(O)c(O)cc2oc2cc(O)c([C@@H]3O[C@H](CO)[C@@H](O)[C@H](O)[C@H]3O)c(O)c12` [MANGIFERIN], in experiment [2], half-maximal inhibition (IC50) required 16.2 µM.

In turn, `C=C(C)[C@H](CCC(C)(C)O)Cc1c(O)cc(O)c2c1O[C@H](c1ccc(O)cc1O)CC2=O` [NORKURARINOL] returned a half-maximal inhibitory concentration (IC50) in experiment [2] of 18.3 µM. The affinity in experiment [3] corresponds to a Ki of 22.7 µM.

On to `COc1ccc2c(c1)OC[C@H]1c3cc4c(cc3O[C@@H]21)OCO4` [PTEROCARPIN], for which the IC50 in experiment [2] was 1.4 µM. Moreover, the Ki in experiment [3] is 1.7 µM.

In turn, `C=C(C)[C@H](CC=C(C)C)Cc1c(O)cc(O)c2c1O[C@H](c1ccc(O)cc1O)CC2=O` [SOPHORAFLAVANONE G] yielded an IC50 in experiment [2] of 13.5 µM. For the same molecule, the inhibition constant Ki in experiment [3] worked out at 20 µM.

In turn, `OC[C@H]1O[C@@H](Oc2ccc3c(c2)OC[C@H]2c4cc5c(cc4O[C@@H]32)OCO5)[C@H](O)[C@@H](O)[C@@H]1O` [TRIFOLIRHIZIN] showed an IC50 in experiment [2] of 237 µM. The molecule also returned a Ki in experiment [3] of 190 µM.
